Where two headings read alike, the source gives them in different places.
System: insulin receptor (IR)
Experiment: Phosphotyrosine enzyme linked immunosorbent assay: pTyr on insulin receptor in NIH3T3 cells over-expressing human IR (H25 cells)
Conditions: for EC50: read-out: ACTIVITY EC50; for increase in PTYR: at 100 μM

SMILES	EC50 (Table III, […])	other results
O=[N+]([O-])c1cnc(Nc2nc(-c3ccc(Cl)cc3)n[nH]2)s1 [Compound 10, 3-(4-chlorophenyl)-5-[(5-nitrothiazol-2-yl)amino]-1,2,4-triazole]	–	dose dependence of the increase in the pTyr level (from 15.6 μM to 250 μM): dependent on the dose
O=[N+]([O-])c1cnc(Sc2nccn2Cc2ccccc2)s1 [Compound 16, 1-Benzyl-2-[(5-nitrothiazol-2-yl)mercapto]imidazole]	27 µM	–
Cc1ccc(S(=O)(=O)n2c(Sc3ncc([N+](=O)[O-])s3)nc3ccccc32)cc1 [Compound 17, 1-Tosyl-2-[(5-nitrothiazol-2-yl)mercapto]benzimidazole]	> 25 µM	–
CCNC(=O)n1c(Sc2ncc([N+](=O)[O-])s2)nc2cc([N+](=O)[O-])ccc21 [Compound 18, 1-Ethylaminocarbonyl-5-nitro-2-[(5-nitrothiazol-2-yl)mercapto]benzimidazole]	–	EC50: 16 µM
Cc1nc2nc(Sc3ncc([N+](=O)[O-])s3)[nH]c2cc1Br [Compound 19]	> 100 µM	–
O=[N+]([O-])c1cnc(Sc2nc3ncccc3[nH]2)s1 [Compound 20]	15 µM	–
O=C(CN(c1ccccc1)c1nnc(Sc2ncc([N+](=O)[O-])s2)s1)Nc1cccc(C(F)(F)F)c1 [Compound 21, 2-[N-Phenyl-N-[3-(trifluoromethyl)phenylaminocarbonylmethyl]amino]-5-[(5-nitrothiazol-2-yl)mercapto]-1,3,4-thiadiazole]	> 50 µM	–
O=CNc1nnc(Sc2ncc([N+](=O)[O-])s2)s1 [Compound 22, 2-Formamido-5-[(5-nitrothiazol-2-yl)mercapto]-1,3,4-thiadiazole]	29 µM	–
CCCCSc1nnc(Sc2ncc([N+](=O)[O-])s2)s1 [Compound 23, 2-n-Butylmercapto-5-[(5-nitrothiazol-2-yl)mercapto]-1,3,4-thiadiazole]	> 100 µM	–
O=C(CSc1nnc(Sc2ncc([N+](=O)[O-])s2)s1)Oc1ccccc1 [Compound 24, 2-[(5-Nitrothiazol-2-yl)mercapto]-5-[(phenoxycarbonyl)methylmercapto]-1,3,4-thiadiazole]	> 100 µM	–
CCOC(=O)CSc1nnc(Sc2nnc(Sc3ncc([N+](=O)[O-])s3)s2)s1 [Compound 25, 2-[(Ethoxycarbonyl)methylmercapto]-5-[[2-[(5-nitrothiazol-2-yl)mercapto]-1,3,4-thiadiazol-5-yl]mercapto]-1,3,4-thiadiazole]	48 µM	–
O=[N+]([O-])c1cnc(Sc2nnc(Sc3nnc(SCCCl)s3)s2)s1 [Compound 26, 2-(2-Chloroethylmercapto)-5-[[2-[(5-nitrothiazol-2-yl)mercapto]-1,3,4-thiadiazol-5-yl]mercapto]-1,3,4-thiadiazole]	–	EC50: 46 µM
O=[N+]([O-])c1cnc(Sc2nnc(Sc3nnc(Sc4cc(O)ccc4O)s3)s2)s1 [Compound 27, 2-(2,5-Dihydroxyphenylmercapto)-5-[[2-[(5-nitrothiazol-2-yl)mercapto]-1,3,4-thiadiazol-5-yl]mercapto]-1,3,4-thiadiazole]	96 µM	–
CCSc1nnc(Sc2ncc([N+](=O)[O-])s2)s1 [Compound 28, 2-Ethylmercapto-5-[(5-nitrothiazol-2-yl)mercapto]-1,3,4-thiadiazole]	35 µM	–
Nc1ccc(-n2nnnc2Sc2ncc([N+](=O)[O-])s2)cc1 [Compound 29, 1-(4-Aminophenyl)-5-[(5-nitrothiazol-2-yl)mercapto]tetrazole]	> 100 µM	–
C=CCn1nnnc1Sc1ncc([N+](=O)[O-])s1 [Compound 30, 1-Allyl-5-[(5-nitrothiazol-2-yl)mercapto]tetrazole]	32 µM	–
CC(=O)Nc1ccc(-n2nnnc2Sc2ncc([N+](=O)[O-])s2)cc1 [Compound 31, 1-(4-Acetamidophenyl)-5-[(5-nitrothiazol-2-yl)mercapto]tetrazole]	> 100 µM	increase (PTYR) (Table III, at 50 μM): 49%
Nc1ccc(-n2nnnc2Sc2ncc([N+](=O)[O-])s2)cc1 [Compound 32, 1-(4-Aminophenyl)-5-[(5-nitrothiazol-2-yl)mercapto]tetrazole]	–	increase in PTYR (Table III): 40%
NS(=O)(=O)c1ccc(-n2nnnc2Sc2ncc([N+](=O)[O-])s2)cc1 [Compound 33, 1-(4-Aminosulfonylphenyl)-5-[(5-nitrothiazol-2-yl)mercapto]tetrazole]	> 100 µM	–
CCn1nnnc1Sc1ncc([N+](=O)[O-])s1 [Compound 34, 1-Ethyl-5-[(5-nitrothiazol-2-yl)mercapto]tetrazole]	33 µM	–
O=c1[nH]c(Sc2ncc([N+](=O)[O-])s2)nc2ccccc12 [Compound 35, 2-[(5-Nitrothiazol-2-yl)mercapto]-4-quinazolone]	> 25 µM	–
Cn1c(=O)n(C)c2nc(Sc3ncc([N+](=O)[O-])s3)ncc21 [Compound 36, 1,3-Dimethyl-5-[(5-nitrothiazol-2-yl)mercapto]imidazo[4,5-d]pyrimid-2-one]	> 100 µM	–
O=[N+]([O-])c1cnc(Sc2nc(O)c3nc(O)[nH]c3n2)s1 [Compound 37]	> 100 µM	–
Nc1nnc(Sc2ncc([N+](=O)[O-])s2)s1 [Compound 38, 2-Amino-5-[(5-nitrothiazol-2-yl)mercapto]-1,3,4-thiadiazole]	15.6 µM	–
O=[N+]([O-])c1cnc(Sc2nc3c([nH]2)CC(Cl)C(Cl)C3)s1 (stereo not shown) [Compound 39, 5,6-Dichloro-2-[(5-nitrothiazol-2-yl)mercapto]cyclohexoimidazole]	17.5 µM	–
O=[N+]([O-])c1cnc(Sc2nc3cc(C(F)(F)F)cc(Br)c3[nH]2)s1 [Compound 40, 4-Bromo-2-[(5-nitrothiazol-2-yl)mercapto]-6-(trifluoromethyl)benzimidazole]	8.6 µM	–
O=[N+]([O-])c1cnc(Sc2nc3cc(C(F)(F)F)cc(Cl)c3[nH]2)s1 [Compound 41, 4-Chloro-2-[(5-nitrothiazol-2-yl)mercapto]-6-(trifluoromethyl)benzimidazole]	10 µM	–
COC(=O)c1cnc(Sc2ncc([N+](=O)[O-])s2)n1C [Compound 42, 4-Methoxycarbonyl-3-methyl-2-[(5-nitrothiazol-2-yl)mercapto]imidazole]	14 µM	–
COc1ccc2nc(Sc3ncc([N+](=O)[O-])s3)[nH]c2c1 [Compound 45, 5-Methoxy-2-[(5-nitrothiazol-2-yl)mercapto]benzimidazole]	–	increase in PTYR (Table III): 46%

More lines, main results first:

EC50 (Table III, […])	SMILES	other results
8.5 µM	CCOC(=O)c1c[nH]c(Sc2ncc([N+](=O)[O-])s2)n1 [Compound 43, 4-Ethoxycarbonyl-2-[(5-nitrothiazol-2-yl)mercapto]imidazole]	–
7.6 µM	CCOC(=O)c1cnc(Sc2ncc([N+](=O)[O-])s2)n1C [Compound 44, 4-Ethoxycarbonyl-3-methyl-2-[(5-nitrothiazol-2-yl)mercapto]imidazole]	–
9.7 µM	CCOc1ccc(OCC)c2[nH]c(Sc3ncc([N+](=O)[O-])s3)nc12 [Compound 46, 4,7-Diethoxy-2-[(5-nitrothiazol-2-yl)mercapto]benzimidazole]	–
15.7 µM	CCOC(=O)c1nc(Sc2ncc([N+](=O)[O-])s2)n(C2CCCCC2)c1C(=O)OCC [Compound 47, 1-Cyclohexyl-4,5-di(ethoxycarbonyl)-2-[(5-nitrothiazol-2-yl)mercapto]imidazole]	–
> 100 µM	CCOC(=O)c1nc(Sc2ncc([N+](=O)[O-])s2)[nH]c1C(=O)OCC [Compound 48, 4,5-Di(ethoxycarbonyl)-2-[(5-nitrothiazol-2-yl)mercapto]imidazole]	–
4 µM	CCCn1c(Sc2ncc([N+](=O)[O-])s2)nc2c(O)nnc(O)c21 [Compound 49]	–
> 100 µM	Cc1ccc2nc(Sc3ncc([N+](=O)[O-])s3)[nH]c2c1 [Compound 50, 5-Methyl-2-[(5-nitrothiazol-2-yl)mercapto]benzimidazole]	–
10.3 µM	O=[N+]([O-])c1cnc(Sc2nc3ccc(S(=O)(=O)O)cc3[nH]2)s1 [Compound 51, 2-[(5-nitrothiazol-2-yl)mercapto]-5-sulfobenzimidazole]	–
> 50 µM	CC(C)n1c(Sc2ncc([N+](=O)[O-])s2)nc2cc(Cl)ccc21 [Compound 52, 5-Chloro-1-isopropyl-2-[(5-nitrothiazol-2-yl)mercapto]benzimidazole]	–
> 25 µM	Cn1c(Sc2ncc([N+](=O)[O-])s2)nc2cc(C(F)(F)F)cnc21 [Compound 53]	–
42 µM	O=[N+]([O-])c1cnc(Sc2nnnn2-c2ccc(F)cc2)s1 [Compound 54, 1-(4-Fuorophenyl)-5-[(5-nitrothiazol-2-yl)mercapto]tetrazole]	–
41 µM	O=[N+]([O-])c1cnc(Sc2nnnn2-c2ccc(O)cc2)s1 [Compound 55, 1-(4-Hydroxyphenyl)-5-[(5-nitrothiazol-2-yl)mercapto]tetrazole]	–
27 µM	Cn1nnnc1Sc1ncc([N+](=O)[O-])s1 [Compound 56, 1-Methyl-5-[(5-nitrothiazol-2-yl)mercapto]tetrazole]	–
81 µM	CCn1nnnc1Sc1ncc([N+](=O)[O-])s1 [Compound 57, 1-Ethyl-5-[(5-nitrothiazol-2-yl)mercapto]tetrazole]	–
40 µM	O=C(O)Cn1nnnc1Sc1ncc([N+](=O)[O-])s1 [Compound 58, 1-Carboxymethyl-5-[(5-nitrothiazol-2-yl)mercapto]tetrazole]	–
> 100 µM	Nc1nnc(Sc2ncc([N+](=O)[O-])s2)s1 [Compound 59, 2-Amino-5-[(5-nitrothiazol-2-yl)mercapto]-1,3,4-thiadiazole]	–
> 100 µM	Cc1nnc(Sc2ncc([N+](=O)[O-])s2)s1 [Compound 60, 2-Methyl-5-[(5-nitrothiazol-2-yl)mercapto]-1,3,4-thiadiazole]	–
32 µM	CSc1nnc(Sc2ncc([N+](=O)[O-])s2)s1 [Compound 61, 2-Methylmercapto-5-[(5-nitrothiazol-2-yl)mercapto]-1,3,4-thiadiazole]	–
> 100 µM	O=[N+]([O-])c1cnc(Sc2nnc(SCC3CC3)s2)s1 [Compound 62, 2-Cyclopropylmethylmercapto-5-[(5-nitrothiazol-2-yl)mercapto]-1,3,4-thiadiazole]	–
